Data on 20 compounds can be found in patent publication US20250115628A1, “FLUORINATED FLUOROPHORES” (HOWARD HUGHES MEDICAL INSTITUTE, priority 2023, published 2025).

Series [1] in a line: General UV-vis and fluorescence spectroscopy. Format: physicochemical. Particulars: 10 mM HEPES, pH 7.3. The procedure: Spectroscopy was performed using 1^−cm path length, 3.5^−mL quartz cuvettes or 1^−cm path length, 1.4^−mL semi-micro quartz cuvettes from Starna Cells. All measurements were taken at ambient temperature (22±2° C.). Absorption spectra were recorded on a Cary Model 100 spectrometer (Agilent), and fluorescence spectra were recorded on a Cary Eclipse fluorometer (Varian). The spectra, maximum absorption wavelength (labs), extinction coefficient at λabs (8), and maximum emission wavelength (em) were measured in 10 mM HEPES, pH 7.3 buffer (rhodamines and Malachite Green derivative 49) or 0.1 M NaOH (fluoresceins); the reported values for e are averages (n=3). Normalized spectra are shown for clarity.

A short description of series [2]: Quantum yield determination. To be noted: 10 mM HEPES, pH 7.3. Format: physicochemical. The procedure:
All reported absolute fluorescence quantum yield values (Φf) were measured using a Quantaurus-QY spectrometer (model C11374, Hamamatsu). This instrument uses an integrating sphere to determine photons absorbed and emitted by a sample. Measurements were carried out using dilute samples (A<0.1), and self-absorption corrections were performed using the instrument software.^81

The nature of series [3]: Determination of KL-Z (lactone-zwitterion equilibrium constant). Format: physicochemical. On the set-up: key: KL-Z = (εdw/εmax)/(1−εdw/εmax); εdw measured in 1:1 dioxane/water. Particulars: 1:1 dioxane:H2O. The procedure:
KL-Z was calculated using the following equation:^16, 18 KL-Z=(εdw/εmax)/(1−εdw/εmax). εdw is the extinction coefficient of the dyes in a 1:1 (v/v) dioxane/water solvent mixture; this dioxane/water mixture was chosen to give the maximum spread of KL-Z values across all classes of rhodamines.^18 εmax refers to the maximal extinction coefficients measured in different solvent mixtures empirically determined depending on dye type: 0.1% v/v trifluoroacetic acid in ethanol for 18, 20, 29, 34, 36, 70-72, 81-83, 93-95, 99-102, and 104; 0.1% v/v trifluoroacetic acid in 2,2,2^−trifluoroethanol for all other rhodamine variants. A accurate determination of low KL-Z values is complicated by the relatively poor sensitivity of absorbance measurements.

For series [4] the following is noted: rhodamine derivatives; 10 mM HEPES, pH 7.3; data from the inventors' published work; cited from earlier work.

Values joined by “and” are separate entries in the source; they are usually repeats but may differ in a detail not shown here. Equal entries are not always repeated. Where two headings read alike, the source gives them in different places.

For the compound `CC1CC(C)(C)Nc2cc3c(cc21)C(c1c(F)c(F)c(F)c(F)c1C(=O)O)=c1cc2c(cc1O3)=NC(C)(C)CC2C` (mixture of isomers) [compound 18, JF563], in series [1] (quinolinyl rhodamines), the ε was 125,000 M^−1cm^−1, the λabs was found to be 563 nm and the λem amounted to 581 nm. This compound showed a Φf in series [2] (quinolinyl rhodamines) of 0.73. For the same compound, in series [3] (quinolinyl rhodamines), the KL-Z was found to be 15.3.

With `[2H]C1([2H])N(c2ccc3c(-c4c(F)c(F)c(F)c(F)c4C(=O)[O-])c4ccc(=[N+]5C([2H])([2H])C([2H])([2H])C([2H])([2H])C5([2H])[2H])cc-4oc3c2)C([2H])([2H])C([2H])([2H])C1([2H])[2H]` [compound 8, JFX576], in series [1] (rhodamine derivatives), the ε is 124,000 M^−1cm^−1, the λabs was determined as 576 nm and the λem came out at 597 nm. In addition, the Φf in series [2] (rhodamine derivatives) is on record as 0.71. In series [3] (rhodamine derivatives), this compound yielded a KL-Z of 7.50.

For the compound `CC1=CC(C)(C)N(C)c2cc3c(cc21)C(c1c(F)c(F)c(F)c(F)c1C(=O)[O-])=c1cc2c(cc1O3)=[N+](C)C(C)(C)C=C2C` [compound 11, 2,3,4,5^−Tetrafluoro-6^−(1,2,2,4,8,10,10,11^−octamethyl-1,2,10,11-tetrahydropyrano[3,2^−g:5,6^−g]diquinolin-13^−ium-6^−yl)benzoate], in series [1] (quinolinyl rhodamines), the ε was 121,000 M^−1cm^−1, the λabs was found to be 610 nm and the λem came out at 630 nm. This compound gave a Φf in series [2] (quinolinyl rhodamines) of 0.68. Further, the KL-Z in series [3] (quinolinyl rhodamines) stood at 7.88.

On to `O=C([O-])c1c(F)c(F)c(F)c(F)c1-c1c2cc3c(cc2[o+]c2cc4c(cc12)CCCN4)NCCC3` [compound 14, 4,5,6,7^−Tetrafluoro-Q-rhodamine], for which, in series [1] (rhodamine derivatives), the ε is 118,000 M^−1cm^−1, the λabs was 558 nm and the λem came out at 576 nm. The same compound showed a Φf in series [2] (rhodamine derivatives) of 0.80. In series [3] (rhodamine derivatives), this compound yielded a KL-Z of 8.57.

As for `O=C([O-])c1c(F)c(F)c(F)c(F)c1C1=c2cc3c4c(c2Oc2c1cc1c5c2CCCN5CCC1)CCC[N+]=4CCC3` [compound 16, 4,5,6,7^−Tetrafluoro-rhodamine 101], in series [1] (rhodamine derivatives), the ε is reported as 110,000 M^−1cm^−1, the λabs is on record as 597 nm and the λem was 616 nm. In series [2] (rhodamine derivatives), the Φf came out at 0.67. This compound yielded a KL-Z in series [3] (rhodamine derivatives) of 13.4.

For the compound `CC1=CC(C)(C)Nc2cc3[o+]c4cc5c(cc4c(-c4c(F)c(F)c(F)c(F)c4C(=O)[O-])c3cc21)C(C)=CC(C)(C)N5` [compound 20, 2,3,4,5^−Tetrafluoro-6^−(2,2,4,8,10,10^−hexamethyl-1,2,10,11-tetrahydropyrano[3,2^−g:5,6^−g]diquinolin-13^−ium-6^−yl)benzoate], in series [1] (quinolinyl rhodamines), the ε is 117,000 M^−1cm^−1, the λabs amounted to 596 nm and the λem is 614 nm. This compound yielded a Φf in series [2] (quinolinyl rhodamines) of 0.64. This compound came in with a KL-Z in series [3] (quinolinyl rhodamines) of 7.65.

Regarding `[2H]C1([2H])N(c2ccc3c(c2)[Si](C)(C)C2=CC(=[N+]4C([2H])([2H])C([2H])([2H])C([2H])([2H])C4([2H])[2H])C=CC2=C3c2c(F)c(F)c(F)c(F)c2C(=O)[O-])C([2H])([2H])C([2H])([2H])C1([2H])[2H]` [compound 25, JFX673], in series [1] (rhodamine derivatives), the ε is on record as 156,000 M^−1cm^−1, the λabs was found to be 673 nm and the λem turned out to be 690 nm. The Φf in series [2] (rhodamine derivatives) is listed as 0.42. In series [3] (rhodamine derivatives), the KL-Z is 1.56.

Take `CCC1=CC2=C(c3c(F)c(F)c(F)c(F)c3C(=O)O)c3cc4c(cc3[Si](C)(C)C2=CC1=NC)NCCC4` [compound 29, 4,5,6,7^−Tetrafluoro-Si-Q-rhodamine]: in series [1] (rhodamine derivatives), the ε is 124,000 M^−1cm^−1; the λabs was 659 nm and 689 nm; the λem worked out at 675 nm. Moreover, the Φf in series [2] (rhodamine derivatives) came to 0.25. In series [3] (rhodamine derivatives), this compound showed a KL-Z of 2.39.

Consider `CCc1cc2c(c3c1=[N+](C)CCC3)[Si](C)(C)c1c(cc3c4c1CCCN4CCC3)C=2c1c(F)c(F)c(F)c(F)c1C(=O)[O-]` [compound 31, JF698], for which, in series [1] (rhodamine derivatives), the ε was 147,000 M^−1cm^−1, the λabs came to 698 nm and the λem amounted to 712 nm. In series [2] (rhodamine derivatives), this compound displayed a Φf of 0.28.

With `CC1CC(C)(C)Nc2cc3c(cc21)C(c1c(F)c(F)c(F)c(F)c1C(=O)O)=c1cc2c(cc1[Si]3(C)C)=NC(C)(C)CC2C` (centres unmarked) [compound 34, 2,3,4,5^−Tetrafluoro-6^−(2,2,4,8,10,10,13,13^−octamethyl-2,3,4,8,9,10,11,13^−octahydrosilino[3,2^−g:5,6^−g]diquin-olin-6^−ylium-6(1H)-yl)benzoate], in series [1] (quinolinyl rhodamines), the ε is listed as 129,000 M^−1cm^−1, the λabs was determined as 660 nm and the λem is on record as 676 nm. In series [2] (quinolinyl rhodamines), this compound showed a Φf of 0.28. This compound also registered a KL-Z in series [3] (quinolinyl rhodamines) of 1.90.

As for `CC1=CC(C)(C)Nc2cc3c(cc21)C(c1c(F)c(F)c(F)c(F)c1C(=O)O)=c1cc2c(cc1[Si]3(C)C)=NC(C)(C)C=C2C` [compound 36, 2,3,4,5^−Tetrafluoro-6^−(2,2,4,8,10,10,13,13^−octamethyl-2,10,11,13-tetrahydrosilino[3,2^−g:5,6^−g]diquinolin-6^−ylium-6(1H)-yl)benzoate], in series [1] (quinolinyl rhodamines), the ε is on record as 85,900 M^−1cm^−1, the λabs was 713 nm and the λem turned out to be 742 nm. This compound also showed a KL-Z in series [3] (quinolinyl rhodamines) of 1.09.

For `CC1=CC(C)(C)N(C)c2cc3c(cc21)C(c1c(F)c(F)c(F)c(F)c1C(=O)[O-])=c1cc2c(cc1[Si]3(C)C)=[N+](C)C(C)(C)C=C2C` [compound 38, 2^−(1,2,2,4,8,10,10,11,13,13^−Decamethyl-2,10,11,13-tetrahydrosilino[3,2^−g:5,6^−g]diquinolin-6^−ylium-6(1H)-yl)-3,4,5,6^−tetrafluorobenzoate], in series [1] (quinolinyl rhodamines), the ε is recorded as 5,700 M^−1cm^−1, the λabs was found to be 754 nm and the λem was 774 nm. Further, the KL-Z in series [3] (quinolinyl rhodamines) is 0.3251.

`CCC1=CC2=C(c3c(F)c(F)c(F)c(F)c3C(=O)O)c3cc4c(cc3C(C)(C)C2=CC1=NC)NCCC4` [compound 47, 4,5,6,7^−Tetrafluoro-carbo-Q-rhodamine]: in series [1] (rhodamine derivatives), the ε is 124,000 M^−1cm^−1, the λabs came out at 621 nm and the λem was found to be 638 nm. Also, in series [2] (rhodamine derivatives), the Φf amounted to 0.37. For the same compound, the KL-Z in series [3] (rhodamine derivatives) is on record as 10.8.

Consider `CCc1cc2c(c3c1=[N+](C)CCC3)C(C)(C)c1c(cc3c4c1CCCN4CCC3)C=2c1c(F)c(F)c(F)c(F)c1C(=O)[O-]` [compound 57, JF660], for which, in series [1] (rhodamine derivatives), the ε was 148,000 M^−1cm^−1, the λabs is listed as 660 nm and the λem is 673 nm. In series [2] (rhodamine derivatives), this compound displayed a Φf of 0.54. In series [3] (rhodamine derivatives), this compound had a KL-Z of 7.55.

Take `CCc1cc2c(c3c1=[N+](C)CCC3)C(C)(C)c1cc3c(cc1C=2c1c(F)c(F)c(F)c(F)c1C(=O)[O-])C(C)CC(C)(C)N3CC` (centres unmarked) [compound 59, JF657]: in series [1] (rhodamine derivatives), the ε is listed as 137,000 M^−1cm^−1, the λabs is on record as 657 nm and the λem amounted to 672 nm. In addition, the Φf in series [2] (rhodamine derivatives) came to 0.50. This compound had a KL-Z in series [3] (rhodamine derivatives) of 4.97.

On to `C=C/C=C(C=C)/[N+](C)=C1\C=CC2=C(c3c(F)c(F)c(F)c(F)c3C(=O)[O-])c3ccc(N(C)c4ccccc4)cc3C(C)(C)C2=C1` [compound 65, JQ645], for which, in series [1] (rhodamine derivatives), the ε is 2,700 M^−1cm^−1 and the λabs was 645 nm. In series [3] (rhodamine derivatives), this compound yielded a KL-Z of 0.344.

With `N=c1ccc2c(-c3c(F)c(F)c(F)c(F)c3C(=O)O)c3ccc(N)cc3oc-2c1` [compound 70, 4,5,6,7^−Tetrafluoro-rhodamine 110], in series [1] (rhodamine derivatives), the ε is reported as 84,500 M^−1cm^−1, the λabs came out at 516 nm and the λem is given as 536 nm. The compound also displayed a Φf in series [2] (rhodamine derivatives) of 0.64. In series [3] (rhodamine derivatives), this compound registered a KL-Z of 9.81.

`CC1=CC(C)(C)Nc2cc3c(cc21)C(c1ccccc1C(=O)O)=c1cc2c(cc1[Si]3(C)C)=NC(C)(C)C=C2C` [compound 102, 2^−(2,2,4,8,10,10,13,13-Octamethyl-2,10,11,13-tetrahydrosilino[3,2^−g:5,6^−g]diquinolin-6^−ylium-6(1H)-yl)-benzoate]: in series [1] (quinolinyl rhodamines), the ε is on record as 4,800 M^−1cm^−1, the λabs is listed as 686 nm and the λem is recorded as 711 nm. Also, the KL-Z in series [3] (quinolinyl rhodamines) turned out to be 0.0143.

`CC1=CC(C)(C)N(C)c2cc3c(cc21)C(c1ccccc1C(=O)[O-])=c1cc2c(cc1[Si]3(C)C)=[N+](C)C(C)(C)C=C2C` [compound 104, 2^−(1,2,2,4,8,10,10,11,13,13^−Decamethyl-2,10,11,13-tetrahydrosilino[3,2^−g:5,6^−g′]diquinolin-6^−ylium-6(1H)-yl)-benzoate]: in series [1] (quinolinyl rhodamines), the ε was 1,200 M^−1cm^−1, the λabs was 720 nm and the λem is on record as 740 nm. Also, the KL-Z in series [3] (quinolinyl rhodamines) is 0.0045.

As to Si-Q-rhodamine [compound 95], the λabs in series [4] is on record as 637 nm.
